The source of these data is patent US20240300886A1, “ARYLCYCLOHEXYLAMINE DERIVATIVES AND THEIR USE IN THE TREATMENT OF PSYCHIATRIC DISORDERS” (GILGAMESH PHARMACEUTICALS, INC., priority 2021, published 2024).

Series [1] in a line: Comparative metabolism/PK of 2R and deuterated 7R in rats after oral administration. Type of series: in vivo, Sprague Dawley rats. The following applies: for concentration at 0.083 h / concentration at 0.25 h / concentration at 0.5 h / concentration at 1 h / concentration at 2 h / concentration at 4 h: oral. As to the method:
Animals. Male Sprague Dawley rats were used in these studies. Animals were randomly assigned to treatment groups and were fasted for 4 h before dosing.
Drugs. Test compounds 2R and 7R were dissolved in a vehicle consisting of normal saline. They were then administered orally (po) at a dose of 10 mg/kg (calculated based on freebase), and at a volume of 5 mL/kg body weight.
(§1) Sample Collection and Bioanalysis. Blood samples (approximately 60 μL) were collected under light isoflurane anesthesia (Surgivet®) from the retro orbital plexus at 0.08, 0.25, 0.5, 1, 2, 4, 8, and 24 h (4 animals per time point). Immediately after blood collection, plasma was harvested by centrifugation at 4,000 rpm for 10 min at 4° C. and samples were stored at −70±10° C. until bioanalysis. Following blood collection, animals were immediately sacrificed, the abdominal vena-cava was cut open, and the whole body was perfused from the heart using 10 mL of normal saline, and brain samples were collected from all animals. After isolation, brain samples were rinsed three times in ice-cold normal saline (for 5-10 seconds/rinse using ˜5-10 mL normal saline in disposable petri dish for each rinse) and dried on blotting paper. Brain samples were homogenized using ice-cold phosphate-buffered saline (pH 7.4) Total homogenate volume was three times the tissue weight. All homogenates were stored at −70±10° C. until bioanalysis. For bioanalysis, 25 μL aliquots of plasma/brain study samples or spiked plasma/brain calibration standards were added to individual pre-labeled micro-centrifuge tubes followed by 100 μL of an internal standard solution (glipizide, 500 ng/mL in acetonitrile) except for blanks, where 100 μL of acetonitrile was added. Samples were vortexed for 5 minutes and then centrifuged for 10 minutes at 4,000 rpm at 4° C. Following centrifugation, 100 μL of each clear supernatant was transferred to a 96 well plate and analyzed with a fit-for-purpose LC-MS/MS method, with authentic samples of each analyte used for calibration and identification. Concentrations of parent compound (2R or 7R) and metabolite 1R were determined in all samples.
(§2) Data Analysis. Pharmacokinetic parameters were estimated using the non-compartmental analysis tool of Phoenix® WinNonlin software (Ver 8.0).

The nature of series [2]: Oral bioavailability in mice, Method B (plasma and brain PK). The settings on record: Method B; for half-life / Cmax / AUC(0-inf): male, C57BL/6; for AUC(0-inf) / AUC0-inf (iv) / AUC0-inf (po): values represent AUC0-last; for F: 1 mg/kg. Type of series: in vivo, C57BL/6 mice. The protocol: Animals. Male C57BL/6 mice were used in these studies. Animals were randomly assigned to treatment groups and were fasted for 4 h before dosing.
Drugs. Test compounds were dissolved in a vehicle consisting of normal saline (for compounds used as the HCl salt) or normal saline slightly acidified with aq. HCl (for freebase compounds). They were then administered intravenously (iv) or orally (po) at a dose of 1 or 10 mg/kg (calculated based on freebase), as indicated, and at a volume of 5 mL/kg body weight. Compounds were tested as the racemates or pure enantiomers, as indicated.
as §1, with “˜5-10 mL,” for “˜5-10 mL”, “(pH 7.4).” for “(pH 7.4)”, “identification.” for “identification. Concentrations of parent compound (2R or 7R) and metabolite 1R were determined in all samples.”
as §2

[3] abbreviates: rat brain after 10 mg/kg po of 2R or 7R, parent or metabolite 1R as labelled, listed as 1R as metabolite of 2R.
The mark [4] stands for this setting: rat brain after 10 mg/kg po of 2R or 7R, parent or metabolite 1R as labelled, listed as 1R as metabolite of 7R.
Setting [5] is: rat plasma after 10 mg/kg po of 2R or 7R, parent or metabolite 1R as labelled, listed as 1R as metabolite of 7R.
[6] abbreviates: mouse brain, 1 mg/kg iv, read-out: t1/2 (iv).
Setting [7] is: mouse plasma, 1 mg/kg iv, read-out: t1/2 (iv).
The mark [8] stands for this setting: mouse plasma, 1 mg/kg iv, read-out: AUC0-inf (iv) (converted).
[9] abbreviates: mouse plasma, 1 mg/kg po, read-out: t1/2 (po).
Setting [10] is: mouse plasma, 1 mg/kg po, read-out: AUC0-inf (po) (converted).
Where [11] appears, read: mouse brain, calculated based on brain exposure (AUC0-last).
Setting [12] is: mouse plasma, based on AUC0-last.

Where two headings read alike, the source gives them in different places.

One may read the Cmax as the highest concentration seen after dosing. For `N[C@@]1(c2ccc(F)cc2)CCCCC1=O` [Compound 1R, (R)-2-amino-2-(4-fluorophenyl)cyclohexan-1-one], the concentration at 0.083 h in series [1] (male, Sprague Dawley, rat, brain, 10 mg/kg, rat brain, 0.083 h after 10 mg/kg po of 2R or 7R, read-out: Mean brain concentration) amounted to 56 ng/g; in series [1] (male, Sprague Dawley, rat, plasma, 10 mg/kg, rat plasma, 0.083 h after 10 mg/kg po of 2R or 7R, read-out: Mean plasma concentration) it was 31 ng/mL. Also, the concentration at 0.25 h in series [1] (male, Sprague Dawley, rat, brain, 10 mg/kg, rat brain, 0.25 h after 10 mg/kg po of 2R or 7R, read-out: Mean brain concentration) was found to be 1470 ng/g; in series [1] (male, Sprague Dawley, rat, plasma, 10 mg/kg, rat plasma, 0.25 h after 10 mg/kg po of 2R or 7R, read-out: Mean plasma concentration), 889 ng/mL. Also, the concentration at 0.5 h in series [1] (male, Sprague Dawley, rat, brain, 10 mg/kg, rat brain, 0.5 h after 10 mg/kg po of 2R or 7R, read-out: Mean brain concentration) was determined as 3200 ng/g; in series [1] (male, Sprague Dawley, rat, plasma, 10 mg/kg, rat plasma, 0.5 h after 10 mg/kg po of 2R or 7R, read-out: Mean plasma concentration), 1700 ng/mL. The concentration at 1 h in series [1] (male, Sprague Dawley, rat, brain, 10 mg/kg, rat brain, 1 h after 10 mg/kg po of 2R or 7R, read-out: Mean brain concentration) turned out to be 3500 ng/g; in series [1] (male, Sprague Dawley, rat, plasma, 10 mg/kg, rat plasma, 1 h after 10 mg/kg po of 2R or 7R, read-out: Mean plasma concentration), 2110 ng/mL. Besides, the concentration at 2 h in series [1] (male, Sprague Dawley, rat, brain, 10 mg/kg, rat brain, 2 h after 10 mg/kg po of 2R or 7R, read-out: Mean brain concentration) stood at 2670 ng/g; in series [1] (male, Sprague Dawley, rat, plasma, 10 mg/kg, rat plasma, 2 h after 10 mg/kg po of 2R or 7R, read-out: Mean plasma concentration), 1410 ng/mL. Further, the concentration at 4 h was determined as 1610 ng/g in series [1] (male, Sprague Dawley, rat, brain, 10 mg/kg, rat brain, 4 h after 10 mg/kg po of 2R or 7R, read-out: Mean brain concentration) and 690 ng/mL in series [1] (male, Sprague Dawley, rat, plasma, 10 mg/kg, rat plasma, 4 h after 10 mg/kg po of 2R or 7R, read-out: Mean plasma concentration). Also, the half-life is 121 min in series [1] (male, Sprague Dawley, rat, brain, po, 10 mg/kg, rat brain after 10 mg/kg po of 2R or 7R, parent or metabolite 1R as labelled, read-out: t1/2 (brain)) and 182 min in series [1] (male, Sprague Dawley, rat, plasma, po, 10 mg/kg, rat plasma after 10 mg/kg po of 2R or 7R, parent or metabolite 1R as labelled, read-out: t1/2 (plasma)). Further, the Cmax in series [1] (male, Sprague Dawley, rat, plasma, po, 10 mg/kg, rat plasma after 10 mg/kg po of 2R or 7R, parent or metabolite 1R as labelled) came to 2110 ng/mL. For the same molecule, in series [1] (male, Sprague Dawley, rat, plasma, po, 10 mg/kg, rat plasma after 10 mg/kg po of 2R or 7R, parent or metabolite 1R as labelled, read-out: AUC0-last (plasma) (converted)), the AUC(0-t) was 8630 ng·h/mL. The “AUC0-last (brain)” value is 820350 ng·min/g in series [1] (setting [3]) and 912802 ng·min/g in series [1] (setting [4]). Moreover, the “Cmax (brain)” value in series [1] (setting [3]) worked out at 3502 ng/g; in series [1] (setting [4]), 2335 ng/g. In addition, the “t1/2 (brain)” value in series [1] (setting [4]) was 185 min. Also, the Mean brain concentration stood at 59 ng/g in series [1] (rat brain, 0.083 h after 10 mg/kg po of 2R or 7R, listed as 1R as metabolite of 7R); 1233 ng/g in series [1] (rat brain, 0.25 h after 10 mg/kg po of 2R or 7R, listed as 1R as metabolite of 7R); 1623 ng/g in series [1] (rat brain, 0.5 h after 10 mg/kg po of 2R or 7R, listed as 1R as metabolite of 7R); 2075 ng/g in series [1] (rat brain, 1 h after 10 mg/kg po of 2R or 7R, listed as 1R as metabolite of 7R); 2335 ng/g in series [1] (rat brain, 2 h after 10 mg/kg po of 2R or 7R, listed as 1R as metabolite of 7R); 1176 ng/g in series [1] (rat brain, 4 h after 10 mg/kg po of 2R or 7R, listed as 1R as metabolite of 7R). Further, the “AUC0-last (plasma)” value in series [1] (setting [5]) amounted to 503548 ng·min/mL. Besides, the “Cmax (plasma)” value in series [1] (setting [5]) came out at 1564 ng/mL. Further, the Mean plasma concentration in series [1] (rat plasma, 0.083 h after 10 mg/kg po of 2R or 7R, listed as 1R as metabolite of 7R) turned out to be 16 ng/mL; in series [1] (rat plasma, 0.25 h after 10 mg/kg po of 2R or 7R, listed as 1R as metabolite of 7R), 525 ng/mL; in series [1] (rat plasma, 0.5 h after 10 mg/kg po of 2R or 7R, listed as 1R as metabolite of 7R), 960 ng/mL; in series [1] (rat plasma, 1 h after 10 mg/kg po of 2R or 7R, listed as 1R as metabolite of 7R), 1360 ng/mL; in series [1] (rat plasma, 2 h after 10 mg/kg po of 2R or 7R, listed as 1R as metabolite of 7R), 1564 ng/mL; in series [1] (rat plasma, 4 h after 10 mg/kg po of 2R or 7R, listed as 1R as metabolite of 7R) it was 705 ng/mL.
Regarding `N[C@]1(c2ccc(F)cc2)CCCCC1=O` [Compound 1S, (S)-2-amino-2-(4-fluorophenyl)cyclohexan-1-one], the results for the half-life in series [2] (setting [6]), in series [2] (setting [7]) and in series [2] (setting [9]) were 36.6 min, 86.4 min and 82.2 min, respectively. Also, the Cmax amounted to 82.2 ng/g in series [2] (mouse brain, 1 mg/kg po) and 394 ng/mL in series [2] (mouse plasma, 1 mg/kg po). In addition, the AUC(0-inf) is 501 ng·h/mL in series [2] (setting [8]) and 470 ng·h/mL in series [2] (setting [10]). Moreover, the “AUC0-inf (iv)” value in series [2] (mouse brain, 1 mg/kg iv) is given as 14,776 ng*min/g. Also, the “AUC0-inf (po)” value in series [2] (mouse brain, 1 mg/kg po) was 6,557 ng*min/g. The F in series [2] (setting [11]) is 44%; in series [2] (setting [12]) it was 94%.
Take `N[C@]1(c2cccc(F)c2)CCCCC1=O` [Compound 3S]: the half-life worked out at 26.4 min in series [2] (setting [6]); 40.8 min in series [2] (mouse brain, 1 mg/kg po, read-out: t1/2 (po)); 101 min in series [2] (setting [7]); 29.4 min in series [2] (setting [9]). In addition, the Cmax in series [2] (mouse brain, 1 mg/kg po) came out at 112 ng/g; in series [2] (mouse plasma, 1 mg/kg po), 640 ng/mL. Further, the AUC(0-inf) was 608 ng·h/mL in series [2] (setting [8]) and 542 ng·h/mL in series [2] (setting [10]). In series [2] (mouse brain, 1 mg/kg iv), the “AUC0-inf (iv)” value is reported as 18,797 ng*min/g. Also, in series [2] (mouse brain, 1 mg/kg po), the “AUC0-inf (po)” value is listed as 7,418 ng*min/g. The F is 39% in series [2] (setting [11]) and 89% in series [2] (setting [12]).
